The record followed here is patent US12421279B2, “Cyclic peptide antiviral agents and methods using same” (priority 2016, dated 2025).

For orientation: IC50 means the concentration that inhibits the measured activity by half.

Each structure is given as a SMILES string. Values joined by “and” are separate entries in the source; they are usually repeats but may differ in a detail not shown here. Equal values may be shown once. Read-outs that look alike come from different tables or passages of the source. *1 amine or outer side, *2 acyl side, *3 side chain or, on linkers, in order; H or OH if unused. Where a SMILES comes first, the peptide text is derived from it. Bridges are numbered along the chain shown (N, C = ends). [ ]: non-standard residue; d: D form. X2 = O=C([C@@H]1C[C@H](n2cc([C]34[CH]5[CH]6[CH]7[CH]3[Fe]6754389%10[CH]4[CH]3[CH]8[CH]9[CH]4%10)nn2)CN1[*:1])[*:2]; X18 = O=C([C@@H]1C[C@H](n2cc(-c3ccc(-c4ccccc4)cc3)nn2)CN1[*:1])[*:2]; X1 = O=C([C@@H]1C[C@H](n2cc(-c3ccc(-c4cccs4)cc3)nn2)CN1[*:1])[*:2]; X16 = CC(C)c1ccc(-c2cn([C@H]3C[C@@H](C(=O)[*:2])N([*:1])C3)nn2)cc1; X19 = Cc1cc(C)cc(Cc2cn([C@H]3C[C@@H](C(=O)[*:2])N([*:1])C3)nn2)c1; X12 = O=C([C@@H]1C[C@H](n2cc(Cc3ccc(Cl)c(F)c3)nn2)CN1[*:1])[*:2]; X13 = O=C([C@@H]1C[C@H](n2cc(-c3cc4ccccc4cn3)nn2)CN1[*:1])[*:2]; X7 = Cc1cccc(Cc2cn([C@H]3C[C@@H](C(=O)[*:2])N([*:1])C3)nn2)c1; X8 = O=C([C@@H]1C[C@H](n2cc(Cc3ccc(Cl)cc3)nn2)CN1[*:1])[*:2]; X3 = Cc1ccccc1Cc1cn([C@H]2C[C@@H](C(=O)[*:2])N([*:1])C2)nn1; Suc = O=C(CCC(=O)[*:2])[*:1]

One test deals with T1, wild type gp120 YU-2 (Human immunodeficiency virus type 1 group M subtype B, UniProt P35961).
T1 construct: into 30 μM of YU2 full-length gp120 at 25° C; made in house; host or cells: HEK 293F
The test can be described thus: Isothermal titration calorimetry binding to gp120. On the set-up: species or system HIV-1. Conditions: ITC, 25° C. How it is done:
FIGS. 9A-9C illustrate cPT binding and thermodynamic profile of monomeric wild type gp120 YU-2 for cPTs 3 (FIGS. 9A and 9C) and 36 (FIGS. 9B and 9C). Compound solution, 390 μM (for 3) or 200 μM (for 36), was titrated in 8 μL steps into 30 μM of YU2 full-length gp120 at 25° C. in the reaction chamber of a VP-ITC instrument using 1×PBS buffer at pH 7.3. The resulting heat changes were integrated, and the values obtained were fitted to a quadratic binding equation (one site binding model).
cPT dissociation constants were determined at 25° C. on a VP-Isothermal Titration calorimeter (VP-ITC) system (MicroCal™, GE Healthcare, Freiburg). 200 μM (for 36) or 390 μM (for 3) compound solutions were in 8 μL steps titrated into 30 μM of wild type gp120 YU-2 at 25° C. using 1×PBS buffer at pH 7.3. The resulting heat change upon injection was integrated over a time range of 300 sec, and the obtained values were fitted to a standard single-site binding model using ORIGIN®.

Setting [1] is: read-out: HIV-1Bal.01 infection inhibition IC50, HIV-1Bal.01 pseudovirus, HOS.T4.R5 cells.
The mark [2] stands for this setting: read-out: HIV-1 IC50, HIV-1Bal.01 infection inhibition, Table 1.

`CC[C@H](C)[C@@H]1NC(=O)[C@H](CC(N)=O)NC(=O)[C@@H](N)CC(=O)NCCCC[C@@H](C(N)=O)NC(=O)[C@H](Cc2c[nH]c3ccccc23)NC(=O)[C@@H]2C[C@H](n3cc(-c4cc5ccccc5cn4)nn3)CN2C1=O` [compound 30] (H-DNI[X13]WK-NH2; lactam 1-6): the values for the IC50 with HIV-1Bal.01 (setting [1]) and in the test on HIV-1Bal.01 (setting [2]) were around 5000 nM and 5000 ± 850 nM, respectively.
Consider `CC[C@H](C)[C@@H]1NC(=O)[C@H](CC(N)=O)NC(=O)[C@@H](N)CC(=O)NCCCC[C@@H](C(N)=O)NC(=O)[C@H](Cc2c[nH]c3ccccc23)NC(=O)[C@@H]2C[C@H](n3cc(Cc4cc(C)cc(C)c4)nn3)CN2C1=O` [cPT 28] (H-DNI[X19]WK-NH2; lactam 1-6 (inferred); N-terminus and C-terminus assumed), for which, in the test with HIV-1Bal.01 (setting [1]), the IC50 was 2000 nM.
The same measure, in the same setting: the same measure for `CC[C@H](C)[C@@H]1NC(=O)[C@H](CC(N)=O)NC(=O)[C@@H](N)CC(=O)NCCCC[C@@H](C(N)=O)NC(=O)[C@H](Cc2c[nH]c3ccccc23)NC(=O)[C@@H]2C[C@H](n3cc(-c4ccc(-c5ccccc5)cc4)nn3)CN2C1=O` [compound 23] (H-DNI[X18]WK-NH2; lactam 1-6): 269 nM.
Take `CC[C@H](C)[C@@H]1NC(=O)[C@H](CC(N)=O)NC(=O)[C@@H](N)CC(=O)NCCCC[C@@H](C(N)=O)NC(=O)[C@H](Cc2c[nH]c3ccccc23)NC(=O)[C@@H]2C[C@H](n3cc(Cc4ccc(Cl)cc4)nn3)CN2C1=O` [compound 31] (H-DNI[X8]WK-NH2; lactam 1-6): the half-inhibitory concentration (IC50) with HIV-1Bal.01 (setting [1]) was around 1800 nM; with HIV-1Bal.01 (setting [2]), 1800 ± 500 nM.
In the same order, the values of `CC[C@H](C)[C@@H]1NC(=O)[C@H](CC(N)=O)NC(=O)[C@@H](N)CC(=O)NCCCC[C@@H](C(N)=O)NC(=O)[C@H](Cc2c[nH]c3ccccc23)NC(=O)[C@@H]2C[C@H](n3cc(-c4ccc(C(C)C)cc4)nn3)CN2C1=O` [compound 21] (H-DNI[X16]WK-NH2; lactam 1-6) are around 900 nM and 900 ± 45 nM.
The matching figures for `CC[C@H](C)[C@@H]1NC(=O)[C@H](CC(N)=O)NC(=O)[C@@H](N)CC(=O)NCCCC[C@@H](C(N)=O)NC(=O)[C@H](Cc2c[nH]c3ccccc23)NC(=O)[C@@H]2C[C@H](n3cc(Cc4ccc(Cl)c(F)c4)nn3)CN2C1=O` [cPT 32] (H-DNI[X12]WK-NH2; lactam 1-6): around 7300 nM and 7300 ± 740 nM.
The matching figures for `CC[C@H](C)[C@@H]1NC(=O)[C@H](CC(N)=O)NC(=O)[C@@H](N)CC(=O)NCCCC[C@@H](C(N)=O)NC(=O)[C@H](Cc2c[nH]c3ccccc23)NC(=O)[C@@H]2C[C@H](n3cc(Cc4ccccc4C)nn3)CN2C1=O` [cPT 25] (H-DNI[X3]WK-NH2; lactam 1-6 (inferred); N-terminus and C-terminus assumed): around 5100 nM and 5100 ± 220 nM.
Consider `CC[C@H](C)[C@@H]1NC(=O)[C@H](CC(N)=O)NC(=O)CCC(=O)NCCCC[C@@H](C(N)=O)NC(=O)[C@H](Cc2c[nH]c3ccccc23)NC(=O)[C@@H]2C[C@H](n3cc(-c4ccc(-c5cccs5)cc4)nn3)CN2C1=O` [compound 38] (NI[X1]WK-NH2; linker N-5 via Suc), for which the “fold decrease in potency compared to 36” value in the test on HIV-1Bal.01 (infection inhibition) was “about 8 fold”. Also, the 50% inhibitory concentration (IC50) in the test with HIV-1Bal.01 (setting [1]) is ~882 nM and 882 nM.
On to `CC[C@H](C)[C@@H]1NC(=O)[C@H](CC(N)=O)NC(=O)[C@@H](N)CC(=O)NCCCC[C@@H](C(N)=O)NC(=O)[C@H](Cc2c[nH]c3ccccc23)NC(=O)[C@@H]2C[C@H](n3cc([C]45[CH]6[CH]7[CH]8[CH]4[Fe]786549%10%11[CH]5[CH]4[CH]9[CH]%10[CH]5%11)nn3)CN2C1=O` (stereo partly shown) [cPT 3] (H-DNI[X2]WK-NH2; lactam 1-6), for which, on wild type gp120 YU-2, the ΔH was -5.96 kcal/mol and -5.96 ± 0.13 kcal/mol; the ΔS was 9.22 cal/mol; the “−TΔS” value is -2.75 kcal/mol.
With `CC[C@H](C)[C@@H]1NC(=O)[C@H](CC(N)=O)NC(=O)[C@@H](N)CC(=O)NCCCC[C@@H](C(N)=O)NC(=O)[C@H](Cc2c[nH]c3ccccc23)NC(=O)[C@@H]2C[C@H](n3cc(Cc4cccc(C)c4)nn3)CN2C1=O` [cPT 26] (H-DNI[X7]WK-NH2; lactam 1-6 (inferred); N-terminus and C-terminus assumed), the concentration for half-maximal inhibition (IC50) in the test with HIV-1Bal.01 (setting [1]) was around 220 nM; in the test on HIV-1Bal.01 (setting [2]) it was 220 ± 42 nM.
